Measurements published in ChEMBL document CHEMBL3045550, “Design, synthesis and biological activities of new strobilurin derivatives containing substituted pyrazoles” (2010).

What was measured:
Type in all cases: functional
Tetranychus cinnabarinus [1] = assay: Acaricidal activity against Tetranychus cinnabarinus (carmine spider mite) in kidney bean plants assessed as mortality at 5 mg/l after 48 hr relative to control
[2] = tested on: Pseudoperonospora cubensis; assay: Antifungal activity against Pseudoperonospora cubensis infected cucumber leaves assessed as disease control at 400 mg/l after 5 days relative to control
Tetranychus cinnabarinus [3] = assay: Acaricidal activity against Tetranychus cinnabarinus (carmine spider mite) in kidney bean plants assessed as mortality at 40 mg/l after 48 hr relative to control
[4] = tested on: Blumeria graminis f. sp. tritici; assay: Antifungal activity against Blumeria graminis f. sp. tritici infected seven-day-old wheat seedlings assessed as disease control at 1.56 mg/l after 7 days relative to control
Tetranychus cinnabarinus [5] = assay: Acaricidal activity against Tetranychus cinnabarinus (carmine spider mite) in kidney bean plants assessed as mortality at 150 mg/l after 48 hr relative to control
[6] = tested on: Pseudoperonospora cubensis; assay: Antifungal activity against Pseudoperonospora cubensis infected cucumber leaves assessed as disease control at 6.25 mg/l after 5 days relative to control
Tetranychus cinnabarinus [7] = assay: Acaricidal activity against Tetranychus cinnabarinus (carmine spider mite) in kidney bean plants assessed as mortality at 2.5 mg/l after 48 hr relative to control
Botrytis cinerea = assay: Antifungal activity against Botryotinia fuckeliana infected cucumber leaves assessed as disease control at 400 mg/l after 4 days relative to control
Tetranychus cinnabarinus [8] = assay: Acaricidal activity against Tetranychus cinnabarinus (carmine spider mite) in kidney bean plants assessed as mortality at 1.25 mg/l after 48 hr relative to control
Tetranychus cinnabarinus [9] = assay: Acaricidal activity against Tetranychus cinnabarinus (carmine spider mite) in kidney bean plants assessed as mortality at 600 mg/l after 48 hr relative to control
[10] = tested on: Blumeria graminis f. sp. tritici; assay: Antifungal activity against Blumeria graminis f. sp. tritici infected seven-day-old wheat seedlings assessed as disease control at 12.5 mg/l after 7 days relative to control
Tetranychus cinnabarinus [11] = assay: Acaricidal activity against Tetranychus cinnabarinus (carmine spider mite) in kidney bean plants assessed as mortality at 20 mg/l after 48 hr relative to control
Tetranychus cinnabarinus [12] = assay: Acaricidal activity against Tetranychus cinnabarinus (carmine spider mite) in kidney bean plants assessed as mortality at 10 mg/l after 48 hr relative to control
Pyricularia oryzae = assay: Antifungal activity against Magnaporthe oryzae infected 12 day old rice plant assessed as disease control at 400 mg/l after 6 days relative to control
[13] = tested on: Pseudoperonospora cubensis; assay: Antifungal activity against Pseudoperonospora cubensis infected cucumber leaves assessed as disease control at 3.12 mg/l after 5 days relative to control
[14] = tested on: Pseudoperonospora cubensis; assay: Antifungal activity against Pseudoperonospora cubensis infected cucumber leaves assessed as disease control at 25 mg/l after 5 days relative to control
Tetranychus cinnabarinus [15] = assay: Acaricidal activity against Tetranychus cinnabarinus (carmine spider mite) in kidney bean plants assessed as mortality at 38 mg/l after 48 hr relative to control
[16] = tested on: Blumeria graminis f. sp. tritici; assay: Antifungal activity against Blumeria graminis f. sp. tritici infected seven-day-old wheat seedlings assessed as disease control at 400 mg/l after 7 days relative to control

Row | SMILES | Activity (Tetranychus cinnabarinus [1]) | Activity [2] | Activity (Tetranychus cinnabarinus [3]) | Activity [4] | Activity (Tetranychus cinnabarinus [5]) | Activity [6] | Activity (Tetranychus cinnabarinus [7]) | Activity (Botrytis cinerea) | Activity (Tetranychus cinnabarinus [8]) | Activity (Tetranychus cinnabarinus [9]) | Activity [10] | Activity (Tetranychus cinnabarinus [11]) | Activity (Tetranychus cinnabarinus [12]) | Activity (Pyricularia oryzae) | Activity [13] | Activity [14] | Activity (Tetranychus cinnabarinus [15]) | Activity [16]
1 | CO/C=C(/C(=O)OC)c1ccccc1COc1c(C)c(-c2ccc(C)cc2C)nn1C | 85% | 100% | 100% | 90% | 100% | 98% | 36% | 50% | 28% | 100% | 100% | 100% | 89% | 100% | 80% | 100% | 100% | 100%
2 | CC(C)(C)c1ccc(CSc2cnn(C(C)(C)C)c(=O)c2Cl)cc1 [PYRIDABEN] | 22% | – | 77% | – | – | – | 12% | – | 0% | – | – | 57% | 48% | – | – | – | – | –
